Measured values from patent publication US10765642B2, “Composition for preventing or treating muscle weakness-related diseases comprising sobrerol” (KOREA RESEARCH INSTITUTE OF BIOSCIENCE AND BIOTECHNOLOGY, priority 2015, dated 2020).

Legend:
[1] = system: female C57BL/6 mice at the age of 21 months; experiment: grip strength test in aged mice; format: in vivo; conditions: oral for 5 weeks
Method: (§1) The grip strength was measured using a grip strength measuring device for mouse (BIOSEB) (FIG. 6). Specifically, the front limbs of the mice of the Example 3-1 were placed on a wire net attached to an instrument panel capable of monitoring the strength, and the strength to hold the wire net was measured while the tail was gripped and pulled downward. The test was repeated three times in succession.
(§2) Experiments were conducted to confirm whether sobrerol increases muscle strength in aged mice. Female C57BL/6 mice at the age of 21 months were adapted to the environment for 2 weeks and then orally administered with drugs for 5 weeks. Specifically, the negative control group was administered with water, the positive control group was administered with clenbuterol at a concentration of 2 mg/kg (mouse), and the sobrerol administration experimental group was orally administered with sobrerol at a concentration of 17.6 or 35.3 mg/kg (mouse). Then, locomotion tests (grip strength, treadmill) were conducted again to verify the effect.
The grip strength test is the same as the Example 3-2.

[2] = system: myosin heavy chain protein; experiment: immunofluorescence of myosin heavy chain protein in C2C12 myoblasts; format: cell-based; conditions: 0.1 μM sobrerol, 72 hours, differentiation medium
Method: Among the myogenic regulatory factors whose mRNA increased in the Example 2-1, experiments were conducted to verify the effect of sobrerol on the expression of myosin heavy chain. Specifically, the expression level of the myosin heavy chain protein was measured by immunofluorescence after treating the C2C12 myoblasts placed in the differentiation medium with 0.1 μM of sobrerol for 72 hours.

myogenin = experiment: qRT-PCR of myogenic regulatory factor mRNA in C2C12 myoblasts: myogenin; format: cell-based; conditions: 0.1 μM sobrerol, 48 hours, growth medium
Method: (§3) Experiments were conducted to verify the effect of sobrerol on mRNA of myogenic regulatory factor. Specifically, the myoblasts (C2C12 myoblast cells) placed in the growth medium were treated with 0.1 μM sobrerol for 48 hours, and then subjected to qRT-PCR to measure the levels of MyoD, myogenin, and myosin heavy chain (MyHC).

aged mice = experiment: treadmill test in aged mice after exercise restriction; format: in vivo; conditions: hind limbs immobilized 5 days then remobilization
Method: as §2
Both hind limbs of the mice were immobilized for 5 days using a surgical stapler (Autosuture Royal 35W stapler), and after removing the surgical stapler, they were allowed to move again (remobilization), and then exercise capability was evaluated by a treadmill test. As a result, the running time on the treadmill decreased after the exercise restriction as compared to that before the exercise restriction in the control group administered with distilled water, whereas the running time was not affected by exercise restriction in the experiment group administered with sobrerol (FIG. 17).

male C57BL/6 mice = experiment: grip strength test after hind limb immobilization and remobilization; format: in vivo
Method: A total of 45 male C57BL/6 mice at 5 weeks of age (Daehan BioLink) were used in this animal experiment. After 2 weeks of adaptation to the surrounding environment, sobrerol was orally administered twice daily since 7 weeks of age. The control group was administered with 200 μL of water/20 g of mouse, and sobrerol was orally administered at a ratio of 1:2:4 [8.8 mg/200 μL/20 g (mouse), 17.6 mg/200 μL/20 g (mouse) and 35.3 mg/200 μL/20 g (mouse)] to verify dose dependency. At 8 weeks of age, both hind limbs of the mice were immobilized for 10 days using a surgical stapler (Autosuture Royal 35W stapler). (A novel hindlimb immobilization procedure for studying skeletal muscle atrophy and recovery in mouse. J Appl Physiol 106: 2049-2059, 2009). After removing the surgical stapler, they were allowed to move again for 3 days (remobilization), and then exercise capability improvement-verification tests (treadmill, and grip tests) were conducted.
as §1

[3] = system: female C57BL/6 mice at the age of 21 months; experiment: muscle weight in aged mice; format: in vivo; conditions: 35.3 mg/kg
Method: as §2
(§4) In addition, changes in the muscle size and the muscle weight of the aged mice by sobrerol were verified by the method of the Example 3-3.
(§5) In addition, as in the Example 3-3, the diameter of the muscle fiber of the tibialis anterior (TA) section was measured by immunofluorescence analysis using laminin antibodies.

[4] = system: female C57BL/6 mice at the age of 21 months; experiment: treadmill test in aged mice; format: in vivo; conditions: 5 weeks
Method: One day prior to the treadmill test, the equipment was warmed up at a rate of 6 m/min for 10 minutes. At the starting point, electric stimulation was configured to flow so that the mice were forced to exercise. The next day, the test was started at a speed of 8 m/min and the speed was increased by 2 m/min every 20 minutes. One hour after the start of the treadmill test, the speed of 12 m/min was maintained, and the angle was increased by 5° and the electric stimulation was turned off. After 20 minutes, the angle of 5° was maintained but only the speed was increased by 2 m/min. Under the above condition, the running times of the mice were measured and recorded.
as §2
Tread mill test is the same as Example 3-3.

[5] = system: tibialis anterior (TA) muscle fibers; experiment: muscle fiber diameter (laminin immunofluorescence of tibialis anterior section) in aged mice; format: in vivo; conditions: aged mice fed with sobrerol
Method: In addition, after the exercise restriction in the Example 3-3, sections of the tibialis anterior (TA) were stained by immunofluorescence analysis using the antibodies against laminin, which is a protein existing at the periphery of muscle fibers, and the diameter of each muscle fiber was measured.
as §2, §4, §5

[6] = system: myosin heavy chain (MyHC); experiment: qRT-PCR of myogenic regulatory factor mRNA in C2C12 myoblasts: myosin heavy chain; format: cell-based; conditions: 0.1 μM sobrerol, 48 hours, growth medium
Method: as §3

MyoD = experiment: qRT-PCR of myogenic regulatory factor mRNA in C2C12 myoblasts: MyoD; format: cell-based; conditions: 0.1 μM sobrerol, 48 hours, growth medium
Method: as §3

## CC1=CCC(C(C)(C)O)CC1O (stereo not shown) [sobrerol]
[1]
  first measured grip strength values, difference between groups: no differences
[1]; sobrerol 17.6 or 35.3 mg/kg, clenbuterol 2 mg/kg
  fatigue (grip strength weakening) on repeated grip strength measurement: did not show the increase in fatigue
[2]
  myosin heavy chain protein fluorescence intensity versus DMSO group: stronger
myogenin
  myogenin mRNA increase: 4 fold
Aged mice
  treadmill running time after exercise restriction versus before: not affected
Male C57BL/6 mice; oral 8.8, 17.6, 35.3 mg/kg, immobilized mice
  grip strength with higher concentration of sobrerol administered: increasing tendency
Male C57BL/6 mice; oral, twice daily, hind limbs immobilized 10 days, remobilization 3 days, negative control 3.5 N or less
  grip strength measurement value: ≥ 4.0 N
[3]
  weights of the gastrocnemius (GA): increased to a significant level
[4]; 17.6 mg/kg oral
  treadmill running time versus negative control group: significantly longer
[4]; 35.3 mg/kg oral
  treadmill running time versus negative control group: longer running time than the negative control group
[5]
  diameters of the muscle fibers (tibialis anterior section): further increased
[6]
  myosin heavy chain mRNA increase: ≥ 25 fold
MyoD
  MyoD mRNA increase: 2 fold
